Measured values taken from publication PMC5582255, “Partial Purification and Characterization of the Recombinant Benzaldehyde Dehydrogenase from Rhodococcus ruber UKMP-5M” (Iranian Journal of Biotechnology, 2017).

Tested on: T1, BZDH (benzaldehyde dehydrogenase, xylC)
T1 construct: xylC ORF of 792 bp, 264 aa, ~27 kDa, homologous to the C-terminal half of other aldehyde dehydrogenases; DEAE ion exchange; forward primer […]; (encodes MSPSPVPPR), reverse primer […]; (C-terminus ...DVPGYPF)
Test: NADH formation at […] nm, Lineweaver-Burk
Type: biochemical, Rhodococcus ruber
Settings: co-substrate NAD (standard assay 5 mM, 50 mM glycine-NaOH); 25 °C; benzaldehyde 0.005-4 mM; pH of kinetic run not stated

Work on O=Cc1ccccc1 [benzaldehyde] yielded a Km of 4.2 mM.
